{"source": "paper PMC12567082", "about": "“Silver(I) Complexes Bearing S-Alkyl Thiosalicylic Acid Derivatives: DNA/BSA Binding and Antitumor Activity In Vitro and In Vivo” (Pharmaceutics, 2025)", "key": {"CT-DNA [1]": {"test_system": "CT-DNA", "test": "UV-Vis absorption titration with CT-DNA", "type": "binding, calf", "conditions": "ΔG = −RT lnKb", "procedure": "All DNA-binding studies were conducted in 0.01 M phosphate-buffered saline (PBS, pH 7.40) at 25 °C. […] To eliminate absorbance from CT-DNA, identical amounts of DNA were added to both the test and reference solutions prior to spectral recording.\nIntrinsic binding constants (Kb) were calculated using the equation to determine the DNA-binding affinities of the complexes (1):[DNA]/(εa − εf) = [DNA]/(εb − εf) + 1 [Kb(εb − εf)](1)\n[DNA] represents the concentration of DNA; apparent extinction coefficient, εa, was calculated as the ratio of the observed absorbance to the concentration of the complex (Aobs/[complex]); and εb and εf correspond to the extinction coefficients of the complex in the fully bound and free forms, respectively. Kb was determined from the ratio of the slope to the intercept obtained from the corresponding linear plots."}, "CT-DNA [2]": {"test_system": "CT-DNA", "test": "EB–CT-DNA fluorescence quenching", "type": "binding, calf", "conditions": "EB–CT-DNA 8.52 × 10^−5 M, PBS pH 7.4", "procedure": "All samples were prepared in phosphate-buffered saline (PBS, pH 7.4). Stern–Volmer Equation (2) was used to interpret the fluorescence quenching data."}, "[3]": {"test_system": "human breast cancer (MDA-MB-468)", "test": "MTT assay MDA-MB-468", "type": "cell-based", "procedure": "(§1) Mouse breast cancer (4T1), human breast cancer (MDA-MB-468), mouse colon cancer (CT26), human colon cancer (HCT-116), mouse lung cancer (LLC1), human lung cancer (A549), mouse mesenchymal stem cells (mMSC), and human fibroblast cell lines (MRC-5) were used in this study and were consistently cultured in complete Dulbecco’s Modified Eagle Medium (DMEM) (Sigma-Aldrich, St. Louis, MO, USA) in incubator (5% CO2) under standard conditions. Complete DMEM was Dulbecco’s Modified Eagle Medium supplemented with 10% fetal bovine serum (FBS), 1 mmol/L penicillin–streptomycin, 1 mmol/L mixed nonessential amino acids, and 2 mmol/L L-glutamine (Sigma-Aldrich, St. Louis, MO, USA). All cancer cell lines and MRC-5 cell line were obtained from American Type Culture Collection (ATCC, Manassas, VA, USA), but mMSC was manufactured by Gibco (Middlesex County, MA, USA).\n(§2) In 96-well microplates, we seeded cancer and non-cancer cells, more exactly 5 × 10^3 cells per well in 100 μL of complete DMEM (Sigma-Aldrich, St. Louis, MO, USA). […] Tested concentration range for all metal-based substances was 3.9–500 μM. After incubation with MTT solution (5 mg/mL; pH 7.2) for 4 h, optical density was determined using Zenyth 3100 microplate multimode detector (Salzburg, Austria). All experiments were performed three times, each in triplicate, and the IC50 values as well as selectivity indexes (IC50 for mMSC or MRC-5/IC50 for mouse or human cancer cells) were calculated."}, "mouse lung cancer (LLC1)": {"test_system": "mouse lung cancer (LLC1)", "test": "MTT assay LLC1", "type": "cell-based", "procedure": "as §1, §2"}, "human lung cancer (A549)": {"test_system": "human lung cancer (A549)", "test": "MTT assay A549", "type": "cell-based", "procedure": "as §1, §2"}, "[4]": {"test_system": "mouse mesenchymal stem cells (mMSC)", "test": "MTT assay mMSC", "type": "cell-based", "conditions": "48 h", "procedure": "as §1, §2"}, "4T1 cells [5]": {"test_system": "4T1 cells", "test": "Colony formation assay", "type": "cell-based, mouse", "conditions": "0.5 µM, 14 days", "procedure": "Cancer 4T1 cells were seeded in a six-well plate (500 cells per well) and incubated with C3 (0.5 µM) or DMEM only for 14 days. After fixation, the colonies were stained using crystal violet."}, "4T1 cells [6]": {"test_system": "4T1 cells", "test": "Analysis of cell death (Annexin V/PI) in 4T1", "type": "cell-based, mouse", "conditions": "0.5 µM, 24 h, vs untreated", "procedure": "4T1 cells were treated with 0.5 µM of C3 or grown in DMEM only (control 4T1 cells) for 24 h and stained with Annexin-V-FITC and propidium iodide (PI) (BD Pharmingen, San Diego, CA, USA) as previously described. Quantification of cellular death was measured using FACSCalibur Flow Cytometer (BD Biosciences, San Jose, CA, USA) and FlowJo software (version 10.7.2; Tree Star Inc. Ashland, OR, USA)."}, "4T1 cells [7]": {"test_system": "4T1 cells", "test": "Cell cycle distribution", "type": "cell-based, mouse", "conditions": "0.5 µM, 24 h", "procedure": "After reaching optimal confluency, 4T1 cells were allowed to grow in the presence of 0.5 µM of C3 or DMEM only (control 4T1 cells) for next 24 h. According to manufacturer’s recommendation, cells were stained with Vybrant® DyeCycle^TM Ruby stain (Thermo Fisher Scientific, Waltham, MA, USA) in order to perform cell cycle analysis. The analysis was carried out on FACSCalibur Flow Cytometer (BD Biosciences, San Jose, CA, USA), and data were analyzed using FlowJo software (version 10.7.2; Tree Star Inc. Ashland, OR, USA)."}, "4T1 cells [8]": {"test_system": "4T1 cells", "test": "Flow cytometry of apoptosis and proliferation markers", "type": "cell-based, mouse", "conditions": "0.5 µM, 24 h, vs untreated", "procedure": "Flow cytometry was performed on 4T1 cells treated with 0.5 µM of C3 for 24 h or untreated cells. After treatment, cells were incubated with antibodies specific for Bax (Abcam Cambridge, Cambridge, UK), Bcl-2 (Abcam Cambridge, UK), BclXL (Thermo Fisher Scientific, Waltham, MA, USA), MCL-1 (Thermo Fisher Scientific, Waltham, MA, USA) caspase 3 (Abcam Cambridge, UK), Ki-67 (eBioscience, San Diego, CA, USA), cyclin D3 (Abcam Cambridge, UK), p21 (Abcam Cambridge, UK), p16 (Abcam Cambridge, UK), and p27 (Abcam Cambridge, UK) and secondary antibodies as previously described. FACSCalibur Flow Cytometer (BD Biosciences, San Jose, CA, USA) was used for flow cytometry, and the data were analyzed using FlowJo (version 10.7.2; Tree Star Inc. Ashland, OR, USA)."}, "4T1 cells [9]": {"test_system": "4T1 cells", "test": "Scratch assay", "type": "cell-based, mouse", "conditions": "0.5 µM, after 12 and 24 h, vs untreated", "procedure": "In order to determine migratory capacity of C3-treated 4T1 cells, scratch assay was performed as previously described. Once 4T1 cells formed a confluent monolayer, an injury was made, and first representative images were taken immediately. Further 4T1 cells were exposed to C3 (0.5 µM) or DMEM only (untreated cells), and observation under inverted optical microscope (Olympus, Tokyo, Japan) was made after 4 h, 12 h, and 24 h. Scratch width was quantified by ImageJ (version 1.54.0 NIH, Madison, WI, USA)."}}}
{"molecule": "CCCSc1ccccc1C(=O)[O][Ag].CCCSc1ccccc1C(=O)[O][Ag]", "note": "[C3, [Ag2(S-propyl-thiosal)2]]", "values": [{"measurement": "ΔG (Gibbs free energy)", "setting": "CT-DNA [1]", "value": -7.29, "unit": "kcal/mol"}, {"measurement": "Ksv EB (Stern–Volmer constant)", "setting": "CT-DNA [2]", "value": "(1.4 ± 0.1) × 10^4 M^−1"}, {"measurement": "IC50", "setting": "[3]; MDA-MB-468, 24 h", "value": "15.5 ± 1.21", "unit": "µM"}, {"measurement": "Selectivity Index (IC50 mMSC or MRC-5/ IC50 Cancer Cell)", "setting": "[3]; MDA-MB-468, 24 h", "value": 2.46}, {"measurement": "IC50", "setting": "[3]; MDA-MB-468, 48 h", "value": "8.76 ± 1.24", "unit": "µM"}, {"measurement": "Selectivity Index (IC50 mMSC or MRC-5/ IC50 Cancer Cell)", "setting": "[3]; MDA-MB-468, 48 h", "value": 4.95}, {"measurement": "IC50", "setting": "mouse lung cancer (LLC1); LLC1, 24 h", "value": "41.6 ± 1.27", "unit": "µM"}, {"measurement": "IC50", "setting": "mouse lung cancer (LLC1); LLC1, 48 h", "value": "20.3 ± 1.18", "unit": "µM"}, {"measurement": "Selectivity Index (IC50 mMSC or MRC-5/ IC50 Cancer Cell)", "setting": "mouse lung cancer (LLC1); LLC1, 48 h", "value": 0.21}, {"measurement": "IC50", "setting": "human lung cancer (A549); A549, 24 h", "value": "55.8 ± 1.83", "unit": "µM"}, {"measurement": "Selectivity Index (IC50 mMSC or MRC-5/ IC50 Cancer Cell)", "setting": "human lung cancer (A549); A549, 24 h", "value": 0.68}, {"measurement": "IC50", "setting": "human lung cancer (A549); A549, 48 h", "value": "66.3 ± 1.18", "unit": "µM"}, {"measurement": "Selectivity Index (IC50 mMSC or MRC-5/ IC50 Cancer Cell)", "setting": "human lung cancer (A549); A549, 48 h", "value": 0.65}, {"measurement": "IC50", "setting": "[4]", "value": "4.22 ± 0.33", "unit": "µM"}, {"measurement": "4T1 colony formation", "setting": "4T1 cells [5]", "value": "almost total inhibition"}, {"measurement": "percentage of early apoptotic cells", "setting": "4T1 cells [6]", "value": "No difference"}, {"measurement": "percentage of late apoptotic 4T1 cells (AnnV+/PI+)", "setting": "4T1 cells [6]", "value": "increased"}, {"measurement": "percentage of 4T1 cells in G0/G1 phase", "setting": "4T1 cells [7]", "value": "significantly increased"}, {"measurement": "percentage of 4T1 cells in S phase", "setting": "4T1 cells [7]", "value": "decreased"}, {"measurement": "Bax/Bcl-2 ratio", "setting": "4T1 cells [8]", "value": "higher"}, {"measurement": "migration ability of 4T1 cells", "setting": "4T1 cells [9]", "value": "significantly reduced"}]}
